Assays:
[1] = tested on: Smn protein; assay: Smn protein assay in cultured cells (SMN HTRF); assay type: cell-based, human; conditions: SMA patient fibroblast cells (GM03813), 48 hours; for EC1.5x for Smn protein expression: 7-point concentration curve, concentration producing 1.5 times Smn protein vs DMSO vehicle; for maximum fold (Fold) increase of Smn protein: 7-point concentration data, relative to vehicle control
How it was run: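 Smn protein measured by HTRF (anti-SMN d2/kryptate) in lysates of SMA patient fibroblasts after 48 h compound treatment, 7-point 3.16-fold dilutions, triplicates. The 665/620 nm ratio is blank-corrected to ΔF, then divided by the vehicle ΔF to give fold increase.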

[2] = tested on: full length SMN2 minigene mRNA containing SMN2 exon 7; assay: SMN2 minigene mRNA splicing RT-qPCR assay in cultured cells; assay type: cell-based, human; conditions: Homo sapiens, HEK293-H; HEK293H cells stably transfected with SMN2-A minigene, 24 hours, 7-point concentration curve; concentration giving 1.5-fold full length SMN2 mRNA vs vehicle; read-out: EC1.5x for production of full length SMN2 mRNA
How it was run: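 Read-out is minigene FL mRNA (exon 7 included) relative to vehicle, from efficiency-corrected ΔΔCt with GAPDH normalisation. Primers and probe span exon 7, exon 8 and luciferase, so endogenous SMN is not detected. Stable SMN2-A minigene HEK293H cells, 24 h compound exposure at 37 °C, 7-point curve in duplicate.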

Structure (SMILES)	melting point	EC1.5x for Smn protein expression [1]	maximum fold (Fold) increase of Smn protein [1]	EC (1.5-fold) [2]
Cc1nc(Cl)cn2cc(-c3cc4ccc(N5CCN(C)[C@@H](C)C5)cc4c(=O)o3)nc12 [Cpd 112, 3-(6-chloro-8-methylimidazo[1,2-a]pyrazin-2-yl)-7-[(3S)-3,4-dimethylpiperazin-1-yl]-1H-isochromen-1-one]	270 to 275 °C	** (an EC1.5× between >1 μM, and ≦3 nM is indicated by two stars (**))	***** (a fold increase >1.65 is indicated by five stars (*****))	1 to 3 µM
Cc1nc(Cl)cn2cc(-c3cc4ccc(C5=CCNCC5)cc4c(=O)o3)nc12 [Cpd 113, 3-(6-chloro-8-methylimidazo[1,2-a]pyrazin-2-yl)-7-(1,2,3,6-tetrahydropyridin-4-yl)-1H-isochromen-1-one]	269 to 273 °C	** (an EC1.5× between >1 μM, and ≦3 nM is indicated by two stars (**))	**** (a fold increase between >1.5 and ≦1.65 is indicated by four stars (****))	≤ 0.1 µM
Cc1cn2cc(-c3cc4ccc(C5CCN(C)CC5)cc4c(=O)o3)nc2c(C)n1 [Cpd 114, 3-(6,8-dimethylimidazo[1,2-a]pyrazin-2-yl)-7-(1-methylpiperidin-4-yl)-1H-isochromen-1-one]	248 to 250 °C	**** (an EC1.5×≦0.3 nM is indicated by four stars (****))	***** (a fold increase >1.65 is indicated by five stars (*****))	≤ 0.1 µM
CCN1CCC(c2ccc3cc(-c4cn5cc(C)nc(C)c5n4)oc(=O)c3c2)CC1 [Cpd 115, 3-(6,8-dimethylimidazo[1,2-a]pyrazin-2-yl)-7-(1-ethylpiperidin-4-yl)-1H-isochromen-1-one]	215 to 217 °C	**** (an EC1.5×≦0.3 nM is indicated by four stars (****))	***** (a fold increase >1.65 is indicated by five stars (*****))	≤ 0.1 µM
CCCN1CCC(c2ccc3cc(-c4cn5cc(C)nc(C)c5n4)oc(=O)c3c2)CC1 [Cpd 116, 3-(6,8-dimethylimidazo[1,2-a]pyrazin-2-yl)-7-(1-propylpiperidin-4-yl)-1H-isochromen-1-one]	204 to 206 °C	*** (an EC1.5× between >0.3 nM and ≦1 nM is indicated by three stars (***))	**** (a fold increase between >1.5 and ≦1.65 is indicated by four stars (****))	≤ 0.1 µM
Cc1cn2cc(-c3cc4ccc(C5CCN(C(C)C)CC5)cc4c(=O)o3)nc2c(C)n1 [Cpd 117, 3-(6,8-dimethylimidazo[1,2-a]pyrazin-2-yl)-7-[1-(propan-2-yl)piperidin-4-yl]-1H-isochromen-1-one]	227 to 229 °C	*** (an EC1.5× between >0.3 nM and ≦1 nM is indicated by three stars (***))	***** (a fold increase >1.65 is indicated by five stars (*****))	≤ 0.1 µM
Cc1cn2cc(-c3cc4ccc(C5CCN(C6COC6)CC5)cc4c(=O)o3)nc2c(C)n1 [Cpd 119, 3-(6,8-dimethylimidazo[1,2-a]pyrazin-2-yl)-7-[1-(oxetan-3-yl)piperidin-4-yl]-1H-isochromen-1-one]	225 to 227 °C	*** (an EC1.5× between >0.3 nM and ≦1 nM is indicated by three stars (***))	***** (a fold increase >1.65 is indicated by five stars (*****))	0.1 to 0.3 µM
CCN1CCN(c2ccc3cc(-c4cn5cc(C)ncc5n4)oc(=O)c3c2)C[C@@H]1C [Cpd 120, 7-[(3S)-4-ethyl-3-methylpiperazin-1-yl]-3-(6-methylimidazo[1,2-a]pyrazin-2-yl)-1H-isochromen-1-one]	255 to 260 °C	**** (an EC1.5×≦0.3 nM is indicated by four stars (****))	***** (a fold increase >1.65 is indicated by five stars (*****))	≤ 0.1 µM
Cc1cn2cc(-c3cc4ccc(N5CCN(C)[C@@H](C)C5)cc4c(=O)o3)nc2cn1 [Cpd 121, 7-[(3S)-3,4-dimethylpiperazin-1-yl]-3-(6-methylimidazo[1,2-a]pyrazin-2-yl)-1H-isochromen-1-one]	250 to 255 °C	**** (an EC1.5×≦0.3 nM is indicated by four stars (****))	***** (a fold increase >1.65 is indicated by five stars (*****))	≤ 0.1 µM
Cc1cn2cc(-c3cc4ccc(N5CCN(C)CC5)cc4c(=O)o3)nc2cn1 [Cpd 122, 3-(6-methylimidazo[1,2-a]pyrazin-2-yl)-7-(4-methylpiperazin-1-yl)-1H-isochromen-1-one]	279 to 285 °C	**** (an EC1.5×≦0.3 nM is indicated by four stars (****))	***** (a fold increase >1.65 is indicated by five stars (*****))	≤ 0.1 µM
Cc1cn2cc(-c3cc4ccc(N5CCC(O)CC5)cc4c(=O)o3)nc2c(C)n1 [Cpd 123, 3-(6,8-dimethylimidazo[1,2-a]pyrazin-2-yl)-7-(4-hydroxypiperidin-1-yl)-1H-isochromen-1-one]	290 to 292 °C	–	* (A maximum fold increase of ≦1.2 is indicated by one star (*))	1 to 3 µM
Cc1cn2cc(-c3cc4ccc(N5CCC(N(C)C)CC5)cc4c(=O)o3)nc2c(C)n1 [Cpd 124, 7-[4-(dimethylamino)piperidin-1-yl]-3-(6,8-dimethylimidazo[1,2-a]pyrazin-2-yl)-1H-isochromen-1-one]	274 to 276 °C	**** (an EC1.5×≦0.3 nM is indicated by four stars (****))	**** (a fold increase between >1.5 and ≦1.65 is indicated by four stars (****))	≤ 0.1 µM
Cc1cn2cc(-c3cc4ccc(N5CCN[C@H](C)C5)cc4c(=O)o3)nc2cn1 [Cpd 125, 3-(6-methylimidazo[1,2-a]pyrazin-2-yl)-7-[(3R)-3-methylpiperazin-1-yl]-1H-isochromen-1-one]	219 to 225 °C	**** (an EC1.5×≦0.3 nM is indicated by four stars (****))	***** (a fold increase >1.65 is indicated by five stars (*****))	≤ 0.1 µM

Continued, in another order:

melting point	Structure (SMILES)	EC1.5x for Smn protein expression [1]	maximum fold (Fold) increase of Smn protein [1]	EC (1.5-fold) [2]
238 to 241 °C	CCN1CCN(c2ccc3cc(-c4cn5cc(C)ncc5n4)oc(=O)c3c2)C[C@H]1C [Cpd 126, 7-[(3R)-4-ethyl-3-methylpiperazin-1-yl]-3-(6-methylimidazo[1,2-a]pyrazin-2-yl)-1H-isochromen-1-one]	**** (an EC1.5×≦0.3 nM is indicated by four stars (****))	**** (a fold increase between >1.5 and ≦1.65 is indicated by four stars (****))	≤ 0.1 µM
243 to 248 °C	Cc1cn2cc(-c3cc4ccc(N5CCN(C)[C@H](C)C5)cc4c(=O)o3)nc2cn1 [Cpd 127, 7-[(3R)-3,4-dimethylpiperazin-1-yl]-3-(6-methylimidazo[1,2-a]pyrazin-2-yl)-1H-isochromen-1-one]	**** (an EC1.5×≦0.3 nM is indicated by four stars (****))	***** (a fold increase >1.65 is indicated by five stars (*****))	≤ 0.1 µM
231 to 236 °C	Cc1cn2cc(-c3cc4ccc(N5CCN(C(C)C)CC5)cc4c(=O)o3)nc2cn1 [Cpd 128, 3-(6-methylimidazo[1,2-a]pyrazin-2-yl)-7-[4-(propan-2-yl)piperazin-1-yl]-1H-isochromen-1-one]	**** (an EC1.5×≦0.3 nM is indicated by four stars (****))	***** (a fold increase >1.65 is indicated by five stars (*****))	≤ 0.1 µM
233 to 238 °C	CCN1[C@H](C)CN(c2ccc3cc(-c4cn5cc(C)ncc5n4)oc(=O)c3c2)C[C@@H]1C [Cpd 129, 7-[(3R,5S)-4-ethyl-3,5-dimethylpiperazin-1-yl]-3-(6-methylimidazo[1,2-a]pyrazin-2-yl)-1H-isochromen-1-one]	**** (an EC1.5×≦0.3 nM is indicated by four stars (****))	***** (a fold increase >1.65 is indicated by five stars (*****))	≤ 0.1 µM
241 to 245 °C	Cc1cn2cc(-c3cc4ccc(N5C[C@@H](C)N(CCO)[C@@H](C)C5)cc4c(=O)o3)nc2cn1 [Cpd 130, 7-[(3R,5S)-4-(2-hydroxyethyl)-3,5-dimethylpiperazin-1-yl]-3-(6-methylimidazo[1,2-a]pyrazin-2-yl)-1H-isochromen-1-one]	**** (an EC1.5×≦0.3 nM is indicated by four stars (****))	**** (a fold increase between >1.5 and ≦1.65 is indicated by four stars (****))	≤ 0.1 µM
279 to 284 °C	Cc1cn2cc(-c3cc4ccc(N5C[C@@H](C)N(C)[C@@H](C)C5)cc4c(=O)o3)nc2cn1 [Cpd 131, 3-(6-methylimidazo[1,2-a]pyrazin-2-yl)-7-[(3R,5S)-3,4,5-trimethylpiperazin-1-yl]-1H-isochromen-1-one]	**** (an EC1.5×≦0.3 nM is indicated by four stars (****))	***** (a fold increase >1.65 is indicated by five stars (*****))	≤ 0.1 µM

From patent publication US9399649B2, “Compounds for treating spinal muscular atrophy” (PTC Therapeutics Inc., priority 2012, dated 2016)
